According to ChEMBL document CHEMBL4476867, “Hydroxy formamide derivatives and their use” (2016):

Columns and labels:
[1] = target: T1, Bone morphogenetic protein 1 (Homo sapiens, UniProt P13497); test: Inhibition of C-terminal FLAG-6x-His epitope tagged and N-terminal human RAGE signal sequence tagged human BMP1 (23 to 721 amino acids) expressed in CHO-E1 cells pre-incubated for 10 mins before promyostatin peptide substrate addition and measured after 60 mins using 0.5 nM BMP1 by FRET based assay; type: cell-based
T1 sequence (P13497 whole entry): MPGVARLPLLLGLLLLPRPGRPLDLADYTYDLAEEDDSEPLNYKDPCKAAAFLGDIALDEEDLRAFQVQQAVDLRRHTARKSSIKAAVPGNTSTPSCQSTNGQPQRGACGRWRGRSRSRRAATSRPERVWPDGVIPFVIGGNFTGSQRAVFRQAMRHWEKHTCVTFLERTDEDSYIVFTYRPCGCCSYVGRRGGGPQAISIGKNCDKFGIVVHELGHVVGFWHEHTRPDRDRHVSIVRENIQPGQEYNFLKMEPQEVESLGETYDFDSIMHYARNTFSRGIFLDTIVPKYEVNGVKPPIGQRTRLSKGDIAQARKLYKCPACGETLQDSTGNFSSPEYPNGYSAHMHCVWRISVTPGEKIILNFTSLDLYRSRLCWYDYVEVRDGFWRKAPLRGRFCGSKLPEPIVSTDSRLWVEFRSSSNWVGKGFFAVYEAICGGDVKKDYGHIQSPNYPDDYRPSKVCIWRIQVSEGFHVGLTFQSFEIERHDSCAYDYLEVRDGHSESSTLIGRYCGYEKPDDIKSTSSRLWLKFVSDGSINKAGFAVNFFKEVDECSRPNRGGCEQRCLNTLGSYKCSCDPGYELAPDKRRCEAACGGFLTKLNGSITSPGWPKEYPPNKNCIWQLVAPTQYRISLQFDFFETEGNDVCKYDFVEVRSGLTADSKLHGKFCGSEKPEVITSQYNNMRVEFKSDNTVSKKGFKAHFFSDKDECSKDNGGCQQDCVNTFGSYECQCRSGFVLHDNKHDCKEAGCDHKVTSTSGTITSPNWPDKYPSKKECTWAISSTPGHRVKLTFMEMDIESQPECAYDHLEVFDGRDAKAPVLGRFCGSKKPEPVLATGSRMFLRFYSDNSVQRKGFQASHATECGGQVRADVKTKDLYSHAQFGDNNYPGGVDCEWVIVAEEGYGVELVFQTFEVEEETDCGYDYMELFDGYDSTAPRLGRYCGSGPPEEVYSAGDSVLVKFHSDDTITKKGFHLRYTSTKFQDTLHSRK

[2] = target: T1, Bone morphogenetic protein 1; test: Inhibition of C-terminal FLAG-6x-His epitope tagged and N-terminal human RAGE signal sequence tagged human BMP1 (23 to 721 amino acids) expressed in CHO-E1 cells pre-incubated for 10 mins before promyostatin peptide substrate addition and measured after 30 mins using 50 nM BMP1 by FRET based assay; type: cell-based
Tolloid-like protein 1 = Tolloid-like protein 1 (Homo sapiens, UniProt O43897, I156V/N221S/V284A); test: Inhibition of recombinant human TLL1 I156V/N221S/V284A mutant expressed in CHOE1A cells pre-incubated for 10 mins before promyostatin peptide substrate addition and measured after 60 mins by FRET based assay; type: cell-based
Tolloid-like protein 2 = target: T2, Tolloid-like protein 2 (Homo sapiens, UniProt Q9Y6L7); test: Inhibition of C-terminal Avi-6x-His epitope tagged and N-terminal human RAGE signal sequence tagged recombinant human TLL2 (26 to 1015 amino acids) expressed in CHOE1A cells incubated for 60 mins with promyostatin peptide substrate by FRET based assay; type: cell-based
T2 sequence (Q9Y6L7 whole entry): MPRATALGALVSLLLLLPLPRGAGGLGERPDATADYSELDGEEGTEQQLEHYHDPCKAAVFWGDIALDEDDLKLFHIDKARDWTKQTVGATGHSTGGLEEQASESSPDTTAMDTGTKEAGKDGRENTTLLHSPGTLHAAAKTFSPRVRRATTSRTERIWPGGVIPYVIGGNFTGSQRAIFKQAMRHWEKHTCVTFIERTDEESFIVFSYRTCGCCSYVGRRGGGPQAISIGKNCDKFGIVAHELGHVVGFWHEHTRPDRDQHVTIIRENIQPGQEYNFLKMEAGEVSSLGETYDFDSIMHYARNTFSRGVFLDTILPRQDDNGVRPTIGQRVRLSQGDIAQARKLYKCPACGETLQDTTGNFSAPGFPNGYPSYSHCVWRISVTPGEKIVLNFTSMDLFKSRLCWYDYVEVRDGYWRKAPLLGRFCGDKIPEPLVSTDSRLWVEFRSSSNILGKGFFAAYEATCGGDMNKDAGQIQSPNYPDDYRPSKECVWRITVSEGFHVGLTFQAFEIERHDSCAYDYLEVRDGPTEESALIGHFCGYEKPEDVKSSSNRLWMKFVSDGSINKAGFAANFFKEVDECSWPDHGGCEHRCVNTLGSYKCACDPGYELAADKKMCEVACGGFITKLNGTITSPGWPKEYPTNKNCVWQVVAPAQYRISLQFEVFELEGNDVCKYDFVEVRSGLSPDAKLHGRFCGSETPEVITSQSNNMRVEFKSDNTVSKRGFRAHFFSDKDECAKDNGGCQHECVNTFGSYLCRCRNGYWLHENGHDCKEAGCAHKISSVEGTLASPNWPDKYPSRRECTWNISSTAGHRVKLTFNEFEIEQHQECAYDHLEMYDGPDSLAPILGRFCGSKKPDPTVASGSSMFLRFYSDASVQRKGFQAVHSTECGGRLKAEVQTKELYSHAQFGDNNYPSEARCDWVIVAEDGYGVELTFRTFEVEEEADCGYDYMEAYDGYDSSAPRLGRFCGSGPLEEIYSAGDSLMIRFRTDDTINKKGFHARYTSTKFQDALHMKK

[3] = Reduction in PICP levels in human cardiac fibroblasts incubated for 24 to 48 hrs by ELISA; type: functional
How it was run: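 Human cardiac fibroblasts at passage 6 or below were plated in 96-well plates at 10,000 to 15,000 cells per well. On the following day, cells were treated for 24 to 48 hr at 37° C in ficoll crowding EMEM containing 100 μM ascorbic acid, with DMSO kept under 0.3%. A Quidel ELISA measured procollagen I C-terminal propeptide released into the medium, and IC50 values were derived in GraphPad Prism by fitting levels, expressed relative to untreated controls, to a log(inhibitor)-response equation.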

Sequence of Tolloid-like protein 1 (O43897 148-1013 I156V/N221S/V284A limits assumed): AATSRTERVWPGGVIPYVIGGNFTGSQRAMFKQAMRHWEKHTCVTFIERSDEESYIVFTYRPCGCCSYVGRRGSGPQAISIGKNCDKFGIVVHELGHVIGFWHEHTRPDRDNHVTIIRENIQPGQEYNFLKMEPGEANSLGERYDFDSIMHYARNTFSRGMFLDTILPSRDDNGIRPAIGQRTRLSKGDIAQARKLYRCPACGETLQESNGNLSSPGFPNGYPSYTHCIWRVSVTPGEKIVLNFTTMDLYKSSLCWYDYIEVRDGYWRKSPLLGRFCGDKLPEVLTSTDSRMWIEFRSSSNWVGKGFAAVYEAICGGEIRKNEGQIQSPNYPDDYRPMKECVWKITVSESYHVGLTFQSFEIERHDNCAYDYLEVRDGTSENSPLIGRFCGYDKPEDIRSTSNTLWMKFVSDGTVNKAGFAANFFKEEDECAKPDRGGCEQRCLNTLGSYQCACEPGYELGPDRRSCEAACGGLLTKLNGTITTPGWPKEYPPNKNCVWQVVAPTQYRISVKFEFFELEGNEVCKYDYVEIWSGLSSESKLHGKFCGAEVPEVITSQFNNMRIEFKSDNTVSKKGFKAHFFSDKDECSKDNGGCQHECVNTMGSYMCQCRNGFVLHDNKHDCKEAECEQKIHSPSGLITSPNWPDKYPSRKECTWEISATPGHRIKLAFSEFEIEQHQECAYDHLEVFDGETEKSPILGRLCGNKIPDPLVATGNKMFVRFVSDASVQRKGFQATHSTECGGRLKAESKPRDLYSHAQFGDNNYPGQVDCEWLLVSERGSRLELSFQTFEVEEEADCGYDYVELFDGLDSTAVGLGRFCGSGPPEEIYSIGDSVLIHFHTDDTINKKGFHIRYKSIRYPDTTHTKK

For `CCCCC[C@H](CN(O)C=O)C(=O)NCNC(=O)c1ccc(-c2cccc(OCC)c2)o1`, the IC50 [1] was < 0.126 µM, the IC50 [2] was < 0.2 µM and the IC50 (Tolloid-like protein 1) was < 0.398 µM. For the same compound, the IC50 (Tolloid-like protein 2) was < 0.794 µM and the IC50 [3] was < 3.98 µM.

In the case of `CCCCC[C@@H](C(=O)NCNC(=O)c1ccc(-c2ccc(C(=O)O)c(OCC)c2)o1)[C@@H](CC)N(O)C=O`, the IC50 [1] is reported as < 0.126 µM, the IC50 [2] is reported as < 0.2 µM and the IC50 (Tolloid-like protein 1) is reported as < 0.398 µM. The IC50 (Tolloid-like protein 2) was < 0.794 µM and the IC50 [3] was < 3.98 µM.

With `CCCCC[C@@H](C(=O)NCNC(=O)c1ccc(-c2ccc(CC(=O)O)c(OCC)c2)o1)[C@@H](CC)N(O)C=O` the IC50 [1] was < 0.126 µM, the IC50 [2] was < 0.2 µM and the IC50 (Tolloid-like protein 1) was < 0.398 µM. The IC50 (Tolloid-like protein 2) was < 0.794 µM and the IC50 [3] was < 3.98 µM.

In the case of `CCCCC[C@H](CN(O)C=O)C(=O)NCNC(=O)c1ccc(-c2cccc(OCC(F)(F)F)c2)o1`, the IC50 [1] is reported as < 0.126 µM, the IC50 [2] is reported as < 0.2 µM and the IC50 (Tolloid-like protein 1) is reported as < 0.398 µM. For the same compound, the IC50 (Tolloid-like protein 2) was < 0.794 µM and the IC50 [3] was < 3.98 µM.

In the case of `CCCCC[C@@H](C(=O)NCNC(=O)c1ccc(-c2ccc(C3(C(=O)O)CC3)cc2)o1)[C@@H](CC)N(O)C=O`, the IC50 [1] is reported as < 0.126 µM, the IC50 [2] is reported as < 0.2 µM and the IC50 (Tolloid-like protein 1) is reported as < 0.398 µM. The IC50 (Tolloid-like protein 2) was < 0.794 µM and the IC50 [3] was < 3.98 µM.

For `CCCCC[C@@H](C(=O)NCNC(=O)c1ccc(-c2ccc(C(C)(C)C(=O)O)cc2)o1)[C@@H](CC)N(O)C=O`, the IC50 [1] was < 0.126 µM, the IC50 [2] was < 0.2 µM and the IC50 (Tolloid-like protein 1) was < 0.398 µM. The IC50 (Tolloid-like protein 2) was < 0.794 µM and the IC50 [3] was < 3.98 µM.

With `CCCCC[C@H](CN(O)C=O)C(=O)NCNC(=O)c1ccc(-c2cccc(N(C)C)c2)o1` the IC50 [1] was < 0.126 µM, the IC50 [2] was < 0.2 µM and the IC50 (Tolloid-like protein 1) was < 0.398 µM. For the same compound, the IC50 (Tolloid-like protein 2) was < 0.794 µM and the IC50 [3] was < 3.98 µM.

In the case of `CCCCC[C@@H](C(=O)NCNC(=O)c1ccc(-c2cc(CC(=O)O)cc(OCC)c2)o1)[C@@H](CC)N(O)C=O`, the IC50 [1] is reported as < 0.126 µM, the IC50 [2] is reported as < 0.2 µM and the IC50 [3] is reported as < 3.98 µM.

With `CCCCC[C@@H](C(=O)NCNC(=O)c1ccc(-c2ccc(CC(=O)O)cc2)o1)[C@@H](CC)N(O)C=O` the IC50 [1] was < 0.126 µM, the IC50 [2] was < 0.2 µM and the IC50 (Tolloid-like protein 1) was < 0.398 µM. For the same compound, the IC50 (Tolloid-like protein 2) was < 0.794 µM and the IC50 [3] was < 3.98 µM.

For `CCCCC[C@H](CN(O)C=O)C(=O)NCNC(=O)c1ccc(-c2cccc(OC(C)C)c2)o1`, the IC50 [1] was < 0.126 µM, the IC50 [2] was < 0.2 µM and the IC50 (Tolloid-like protein 1) was < 0.398 µM. For the same compound, the IC50 [3] was < 3.98 µM.

For `CCCCC[C@H](CN(O)C=O)C(=O)NCNC(=O)c1ccc(-c2cccc(OC(F)F)c2)o1`, the IC50 [1] was < 0.126 µM, the IC50 [2] was < 0.2 µM and the IC50 (Tolloid-like protein 1) was < 0.398 µM. For the same compound, the IC50 (Tolloid-like protein 2) was < 0.794 µM and the IC50 [3] was < 3.98 µM.

With `CCCCC[C@@H](C(=O)NCNC(=O)c1ccc(-c2cc(OCC)cc(C(=O)NCC(=O)O)c2)o1)[C@@H](CC)N(O)C=O` the IC50 [1] was < 0.126 µM, the IC50 [2] was < 0.2 µM and the IC50 [3] was < 3.98 µM.

In the case of `CCCCC[C@H](CN(O)C=O)C(=O)NCNC(=O)c1ccc(-c2cc(OC)ccn2)o1`, the IC50 [1] is reported as < 0.126 µM, the IC50 [2] is reported as < 0.2 µM and the IC50 (Tolloid-like protein 1) is reported as < 0.398 µM. For the same compound, the IC50 (Tolloid-like protein 2) was < 0.794 µM and the IC50 [3] was < 3.98 µM.
